Assay results published in US20020048549A1, “Radioactive transition metal nitride heterocomplex” (priority 1996, published 2002).
Where two headings read alike, the source gives them in different places. Each block holds one molecule with its values, some of them ahead of it.

How the values were obtained:
[1] = Stability of the complex / its solution after preparation; format: physicochemical; conditions: reaction solution after preparation
Method: In a mixture of 0.6 ml of ethanol and […] ( 1 mol/l) of an aqueous HCl solution were dissolved 5 mg of SDH and 1.5 mg of PNP, followed by adding thereto a physiologically acceptable ^99mTcO4^− solution ( 0.5 ml, 50 MBq). The resulting mixture was heated at 80° C. for 20 minutes and then cooled to 40° C., after which 0.25 ml of HCO3^−/CO3^2− buffer was added thereto to adjust the pH at about 8.0. Subsequently, a solution of 0.5 mg of βglu in 1.5 ml of water was added. The complex finally obtained was analyzed by […] and HPLC. […] The radiochemical purity of the final complex was higher than 95%. […]
In a mixture of 0.6 ml of ethanol and […] ( 1 mol/l) of an aqueous HCl solution were dissolved 5 mg of SDH and 1.5 mg of PNP, followed by adding thereto a physiologically acceptable ^99mTcO4 solution ( 0.5 ml, 50 MBq). […] The complex finally obtained was analyzed by HTLC and HPLC. […]
In a mixture of 0.6 ml of ethanol and 0.1 mg (1 mol/l) of an aqueous HCl solution were dissolved 5 mg of SDH and 1.5 mg of PNP, followed by adding thereto a physiologically acceptable ^99mTcO4^− solution (0.5 ml, 50 MBq). […] The complex finally obtained was analyzed by HTLC and HPLC. […]

[2] = Biodistribution of 99mTc(N)(X)(DTC)+ heterocomplexes in rats; format: in vivo, male Spraque-Dawley rats (SD rats)
Method: The biodistribution of a ^99mTc nitride heterocomplex represented by the general formula ^99mTc(N)(X)(Y) was investigated as follows: ^99mTc nitride heterocomplexes were synthesized using DTC as a bidentate ligand Y and each of the diphosphine compounds X described below, and the biodistribution in rats of each heterocomplex was investigated.
Before being injected into rats, the contents of the vial were diluted with phosphate buffer (0.1 mol/dm^3, pH=7.06) containing 10% Tween 80 ([…]). The complexes were stable in the solutions and in human plasma for at least 6 hours.
The biodistribution was measured using male Spraque-Dawley rats (SD rats) weighing 200 to 250 g. After 24 hours fasting, the rats were put under intraperitoneal anesthesia and given an injection in the jugular vein. Then, the organs were excised from the rats at different intervals of time, washed and then weighed. In addition, blood samples were collected and then weighed. The data on the biodistribution are expressed as the mean±significant difference of the percentage of radioactivity level per gram of the organ weight based on the dose of radioactivity, (% dose/g). The measurement was carried out using groups of 5 rats each.

SMILES: CCN1CC[PH](c2ccccc2)(c2ccccc2)[99Tc]2(#[N])([O]C(=O)c3ccccc3[S]2)[PH](c2ccccc2)(c2ccccc2)CC1 [Example 3]
stability of the complex / solution of the complex [1]: stable

stability of the complex / solution of the complex [1]: stable
SMILES: CCON(CC)C1=[S+][99Tc]2(#[N])([S]1)[PH](c1ccccc1)(c1ccccc1)CCN(CC)CC[PH]2(c1ccccc1)c1ccccc1 [Example 4]

Bone % dose/g [2]: 0.225 ± 0.01 % dose/g | Heart % dose/g [2]: 0.923 ± 0.04 % dose/g | Liver % dose/g [2]: 3.662 ± 0.43 % dose/g | Spleen % dose/g [2]: 2.202 ± 0.07 % dose/g | Blood % dose/g ([2]; 0 min after injection): 2.617 ± 0.04 % dose/g | Brain % dose/g ([2]; 0 min after injection): 0.142 ± 0.14 % dose/g | Intestine % dose/g ([2]; 0 min after injection): 0.482 ± 0.02 % dose/g | Kidney % dose/g ([2]; 0 min after injection): 3.141 ± 0.35 % dose/g | Lung % dose/g ([2]; 0 min after injection): 2.792 ± 0.18 % dose/g | Muscle % dose/g ([2]; 0 min after injection): 0.087 ± 0.00 % dose/g | Stomach % dose/g ([2]; 0 min after injection): 0.522 ± 0.09 % dose/g | Blood % dose/g ([2]; 2 min after injection): 1.254 ± 0.19 % dose/g | Bone % dose/g ([2]; 2 min after injection): 0.214 ± 0.05 % dose/g | Brain % dose/g ([2]; 2 min after injection): 0.073 ± 0.00 % dose/g | Heart % dose/g ([2]; 2 min after injection): 0.73 ± 0.07 % dose/g | Intestine % dose/g ([2]; 2 min after injection): 0.581 ± 0.06 % dose/g | Kidney % dose/g ([2]; 2 min after injection): 5.952 ± 0.74 % dose/g | Liver % dose/g ([2]; 2 min after injection): 4.821 ± 0.71 % dose/g | Lung % dose/g ([2]; 2 min after injection): 2.387 ± 0.08 % dose/g | Muscle % dose/g ([2]; 2 min after injection): 0.075 ± 0.00 % dose/g | Spleen % dose/g ([2]; 2 min after injection): 3.587 ± 0.99 % dose/g | Stomach % dose/g ([2]; 2 min after injection): 0.493 ± 0.02 % dose/g | Blood % dose/g ([2]; 10 min after injection): 0.542 ± 0.02 % dose/g | Bone % dose/g ([2]; 10 min after injection): 0.306 ± 0.07 % dose/g | Brain % dose/g ([2]; 10 min after injection): 0.029 ± 0.00 % dose/g | Heart % dose/g ([2]; 10 min after injection): 0.434 ± 0.05 % dose/g | Intestine % dose/g ([2]; 10 min after injection): 0.934 ± 0.03 % dose/g | Kidney % dose/g ([2]; 10 min after injection): 4.805 ± 0.51 % dose/g | Liver % dose/g ([2]; 10 min after injection): 6.161 ± 0.47 % dose/g | Lung % dose/g ([2]; 10 min after injection): 1.19 ± 0.40 % dose/g | Muscle % dose/g ([2]; 10 min after injection): 0.069 ± 0.01 % dose/g | Spleen % dose/g ([2]; 10 min after injection): 3.538 ± 0.70 % dose/g | Stomach % dose/g ([2]; 10 min after injection): 0.653 ± 0.06 % dose/g | Blood % dose/g ([2]; 30 min after injection): 0.547 ± 0.01 % dose/g | Bone % dose/g ([2]; 30 min after injection): 0.21 ± 0.02 % dose/g | Brain % dose/g ([2]; 30 min after injection): 0.023 ± 0.00 % dose/g | Heart % dose/g ([2]; 30 min after injection): 0.428 ± 0.05 % dose/g | Intestine % dose/g ([2]; 30 min after injection): 0.64 ± 0.00 % dose/g | Kidney % dose/g ([2]; 30 min after injection): 3.25 ± 1.12 % dose/g | Liver % dose/g ([2]; 30 min after injection): 6.199 ± 0.15 % dose/g | Lung % dose/g ([2]; 30 min after injection): 1.05 ± 0.13 % dose/g | Muscle % dose/g ([2]; 30 min after injection): 0.083 ± 0.03 % dose/g | Spleen % dose/g ([2]; 30 min after injection): 2.07 ± 0.55 % dose/g | Stomach % dose/g ([2]; 30 min after injection): 0.216 ± 0.01 % dose/g | Blood % dose/g ([2]; 1 hr after injection): 0.261 ± 0.14 % dose/g | Bone % dose/g ([2]; 1 hr after injection): 0.327 ± 0.02 % dose/g | Brain % dose/g ([2]; 1 hr after injection): 0.019 ± 0.00 % dose/g | Heart % dose/g ([2]; 1 hr after injection): 0.42 ± 0.05 % dose/g | Intestine % dose/g ([2]; 1 hr after injection): 1.236 ± 0.03 % dose/g | Kidney % dose/g ([2]; 1 hr after injection): 5.054 ± 0.18 % dose/g | Liver % dose/g ([2]; 1 hr after injection): 5.128 ± 0.15 % dose/g | Lung % dose/g ([2]; 1 hr after injection): 0.771 ± 0.09 % dose/g | Muscle % dose/g ([2]; 1 hr after injection): 0.068 ± 0.01 % dose/g | Spleen % dose/g ([2]; 1 hr after injection): 3.542 ± 1.23 % dose/g | Stomach % dose/g ([2]; 1 hr after injection): 0.944 ± 0.16 % dose/g | Blood % dose/g ([2]; 2 hr after injection): 0.145 ± 0.01 % dose/g | Bone % dose/g ([2]; 2 hr after injection): 0.296 ± 0.01 % dose/g | Brain % dose/g ([2]; 2 hr after injection): 0.018 ± 0.01 % dose/g | Heart % dose/g ([2]; 2 hr after injection): 0.384 ± 0.00 % dose/g | Intestine % dose/g ([2]; 2 hr after injection): 1.478 ± 0.09 % dose/g | Kidney % dose/g ([2]; 2 hr after injection): 5.145 ± 0.11 % dose/g | Liver % dose/g ([2]; 2 hr after injection): 3.05 ± 0.07 % dose/g | Lung % dose/g ([2]; 2 hr after injection): 0.757 ± 0.05 % dose/g | Muscle % dose/g ([2]; 2 hr after injection): 0.066 ± 0.03 % dose/g | Spleen % dose/g ([2]; 2 hr after injection): 4.32 ± 0.19 % dose/g | Stomach % dose/g ([2]; 2 hr after injection): 1.857 ± 0.22 % dose/g | Blood % dose/g ([2]; 4 hr after injection): 0.125 ± 0.00 % dose/g | Bone % dose/g ([2]; 4 hr after injection): 0.321 ± 0.01 % dose/g | Brain % dose/g ([2]; 4 hr after injection): 0.01 ± 0.00 % dose/g | Heart % dose/g ([2]; 4 hr after injection): 0.303 ± 0.01 % dose/g | Intestine % dose/g ([2]; 4 hr after injection): 1.843 ± 0.02 % dose/g | Kidney % dose/g ([2]; 4 hr after injection): 1.745 ± 0.11 % dose/g | Liver % dose/g ([2]; 4 hr after injection): 1.538 ± 0.01 % dose/g | Lung % dose/g ([2]; 4 hr after injection): 0.549 ± 0.03 % dose/g | Muscle % dose/g ([2]; 4 hr after injection): 0.067 ± 0.00 % dose/g | Spleen % dose/g ([2]; 4 hr after injection): 3.094 ± 0.50 % dose/g | Stomach % dose/g ([2]; 4 hr after injection): 1.74 ± 0.01 % dose/g
SMILES: CSC1=[S+][99Tc-2]2(#[N])([NH]N1C)[P+](c1ccccc1)(c1ccccc1)CCOCC[P+]2(c1ccccc1)c1ccccc1 [^99mTc(N)(POP)(DTC)^+]
